Laboratory results as given in ChEMBL document CHEMBL3102773, “The synthesis and comparative receptor binding affinities of novel, isomeric pyridoindolobenzazepine scaffolds” (Bioorg Med Chem Lett, 2014).
Several values for one entry are separate records, joined by “and”; a condition that tells them apart may be missing. Equal entries are not always repeated. Structures can show the parent of a compound that is named as a salt.

Tests used:
[1] = target: T1, Muscarinic acetylcholine receptor M2 (Homo sapiens, UniProt P08172); assay: Binding affinity to muscarinic M2 receptor (unknown origin) by radioligand displacement assay
T1 sequence (P08172 whole entry): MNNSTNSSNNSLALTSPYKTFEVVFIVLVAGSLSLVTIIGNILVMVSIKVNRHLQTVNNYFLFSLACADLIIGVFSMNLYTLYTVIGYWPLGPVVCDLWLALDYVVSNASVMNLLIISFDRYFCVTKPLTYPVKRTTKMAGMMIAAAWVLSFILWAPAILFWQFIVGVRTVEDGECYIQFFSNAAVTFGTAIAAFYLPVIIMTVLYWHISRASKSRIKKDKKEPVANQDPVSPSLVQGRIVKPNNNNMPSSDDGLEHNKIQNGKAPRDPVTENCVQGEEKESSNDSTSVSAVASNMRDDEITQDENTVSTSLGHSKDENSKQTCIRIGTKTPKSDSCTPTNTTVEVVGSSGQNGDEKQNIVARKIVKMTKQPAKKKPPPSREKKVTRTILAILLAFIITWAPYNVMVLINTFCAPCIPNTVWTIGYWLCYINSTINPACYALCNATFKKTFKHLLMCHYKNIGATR

[2] = target: Muscarinic acetylcholine receptor M3 (Homo sapiens, UniProt P20309)
Description: Displacement of [3H]QNB from muscarinic M3 receptor (unknown origin)

[3] = target: Muscarinic acetylcholine receptor M1 (Homo sapiens, UniProt P11229)
Description: Displacement of [3H]QNB from muscarinic M1 receptor (unknown origin)

Mu-type opioid receptor = Mu-type opioid receptor (Homo sapiens, UniProt P35372); assay: Binding affinity to mu opioid receptor (unknown origin) by radioligand displacement assay
[4] = target: Delta-type opioid receptor (Homo sapiens, UniProt P41143); assay: Binding affinity to delta opioid receptor (unknown origin) by radioligand displacement assay
[5] = target: Kappa-type opioid receptor (Homo sapiens, UniProt P41145); assay: Displacement of [3H]U69593 from kappa opioid receptor (unknown origin)
Histamine H3 receptor = Histamine H3 receptor (Homo sapiens, UniProt Q9Y5N1); assay: Binding affinity to histamine H3 receptor (unknown origin) by radioligand displacement assay
[6] = target: Sigma non-opioid intracellular receptor 1 (Homo sapiens, UniProt Q99720); assay: Displacement of [3H](+)Pentazocine from sigma 1 receptor (unknown origin)
Histamine H1 receptor = Histamine H1 receptor (Homo sapiens, UniProt P35367)
Description: Displacement of [3H]Pyrilamine from histamine H1 receptor (unknown origin)

[7] = target: Beta-2 adrenergic receptor (Homo sapiens, UniProt P07550); assay: Binding affinity to adrenergic beta2 receptor (unknown origin) by radioligand displacement assay
[8] = target: Beta-3 adrenergic receptor (Homo sapiens, UniProt P13945); assay: Binding affinity to adrenergic beta3 receptor (unknown origin) by radioligand displacement assay
[9] = target: Beta-1 adrenergic receptor (Homo sapiens, UniProt P08588); assay: Binding affinity to adrenergic beta1 receptor (unknown origin) by radioligand displacement assay
[10] = target: Alpha-2B adrenergic receptor (Homo sapiens, UniProt P18089)
Description: Displacement of [125I]Clonidine from adrenergic alpha2B receptor (unknown origin)

[11] = target: Alpha-1D adrenergic receptor (Homo sapiens, UniProt P25100)
[12] = target: Alpha-1A adrenergic receptor (Homo sapiens, UniProt P35348)
D(2) dopamine receptor = D(2) dopamine receptor (Homo sapiens, UniProt P14416); assay: Displacement of [3H]N-Methylspiperone from dopamine D2 receptor (unknown origin)
D(1A) dopamine receptor = D(1A) dopamine receptor (Homo sapiens, UniProt P21728); assay: Binding affinity to dopamine D1 receptor (unknown origin) by radioligand displacement assay
[13] = target: 5-hydroxytryptamine receptor 2A (Homo sapiens, UniProt P28223)
Description: Displacement of [3H]Ketanserin from 5-HT2A receptor (unknown origin)

[14] = target: 5-hydroxytryptamine receptor 1D (Homo sapiens, UniProt P28221); assay: Displacement of [3H]5-CT from 5-HT1D receptor (unknown origin)
[15] = target: 5-hydroxytryptamine receptor 1A (Homo sapiens, UniProt P08908); assay: Displacement of [3H]WAY100635 from 5-HT1A receptor (unknown origin)
[16] = target: Sodium-dependent serotonin transporter (Homo sapiens, UniProt P31645)
[17] = target: Sodium-dependent noradrenaline transporter (Homo sapiens, UniProt P23975); assay: Displacement of [3H]Nisoxetine from norepinephrine transporter (unknown origin)
[18] = target: Sodium-dependent dopamine transporter (Homo sapiens, UniProt Q01959); assay: Binding affinity to dopamine transporter (unknown origin) by radioligand displacement assay
[19] = target: T2, Muscarinic acetylcholine receptor M4 (Homo sapiens, UniProt P08173); assay: Binding affinity to muscarinic M4 receptor (unknown origin) by radioligand displacement assay
T2 sequence (P08173 whole entry): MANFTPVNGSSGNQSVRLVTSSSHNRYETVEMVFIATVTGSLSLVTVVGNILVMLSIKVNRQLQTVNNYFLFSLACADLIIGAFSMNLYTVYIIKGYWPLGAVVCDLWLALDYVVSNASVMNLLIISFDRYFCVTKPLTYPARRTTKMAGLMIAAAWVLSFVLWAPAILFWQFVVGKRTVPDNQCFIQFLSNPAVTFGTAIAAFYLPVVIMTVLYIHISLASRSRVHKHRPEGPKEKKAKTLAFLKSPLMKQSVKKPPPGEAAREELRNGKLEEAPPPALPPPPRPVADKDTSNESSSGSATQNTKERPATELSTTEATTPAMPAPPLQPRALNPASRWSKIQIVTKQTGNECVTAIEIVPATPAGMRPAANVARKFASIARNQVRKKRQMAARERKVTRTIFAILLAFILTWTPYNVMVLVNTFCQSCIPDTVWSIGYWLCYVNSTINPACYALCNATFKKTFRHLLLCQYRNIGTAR

Histamine H2 receptor = Histamine H2 receptor (Homo sapiens, UniProt P25021)
[20] = target: Alpha-2C adrenergic receptor (Homo sapiens, UniProt P18825)
Description: Displacement of [125I]Clonidine from adrenergic alpha2C receptor (unknown origin)

[21] = target: Alpha-2A adrenergic receptor (Homo sapiens, UniProt P08913)
Description: Displacement of [125I]Clonidine from adrenergic alpha2A receptor (unknown origin)

[22] = target: Alpha-1B adrenergic receptor (Homo sapiens, UniProt P35368)
Description: Displacement of [125I]HEAT from adrenergic alpha1B receptor (unknown origin)

D(1B) dopamine receptor = D(1B) dopamine receptor (Homo sapiens, UniProt P21918)
D(4) dopamine receptor = target: T3, D(4) dopamine receptor (Homo sapiens, UniProt P21917)
T3 sequence (P21917 whole entry): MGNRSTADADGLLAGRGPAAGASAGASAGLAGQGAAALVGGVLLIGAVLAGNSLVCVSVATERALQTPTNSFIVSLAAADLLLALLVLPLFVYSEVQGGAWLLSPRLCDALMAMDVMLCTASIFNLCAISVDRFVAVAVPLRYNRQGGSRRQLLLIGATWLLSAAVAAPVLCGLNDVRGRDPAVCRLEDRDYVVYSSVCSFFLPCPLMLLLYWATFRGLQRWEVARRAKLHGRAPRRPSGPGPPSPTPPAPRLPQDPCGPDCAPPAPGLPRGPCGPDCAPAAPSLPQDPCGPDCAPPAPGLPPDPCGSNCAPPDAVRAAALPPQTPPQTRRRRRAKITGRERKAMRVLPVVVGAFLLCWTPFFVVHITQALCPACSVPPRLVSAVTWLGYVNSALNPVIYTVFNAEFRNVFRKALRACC
Description: Displacement of [3H]N-Methylspiperone from dopamine D4 receptor (unknown origin)

D(3) dopamine receptor = D(3) dopamine receptor (Homo sapiens, UniProt P35462)
Description: Displacement of [3H]N-Methylspiperone from dopamine D3 receptor (unknown origin)

[23] = target: 5-hydroxytryptamine receptor 6 (Homo sapiens, UniProt P50406)
Description: Displacement of [3H]LSD from 5-HT6 receptor (unknown origin)

[24] = target: 5-hydroxytryptamine receptor 7 (Homo sapiens, UniProt P34969)
Description: Displacement of [3H]LSD from 5-HT7 receptor (unknown origin)

[25] = target: T4, 5-hydroxytryptamine receptor 3A (Homo sapiens, UniProt P46098)
T4 sequence (P46098 whole entry): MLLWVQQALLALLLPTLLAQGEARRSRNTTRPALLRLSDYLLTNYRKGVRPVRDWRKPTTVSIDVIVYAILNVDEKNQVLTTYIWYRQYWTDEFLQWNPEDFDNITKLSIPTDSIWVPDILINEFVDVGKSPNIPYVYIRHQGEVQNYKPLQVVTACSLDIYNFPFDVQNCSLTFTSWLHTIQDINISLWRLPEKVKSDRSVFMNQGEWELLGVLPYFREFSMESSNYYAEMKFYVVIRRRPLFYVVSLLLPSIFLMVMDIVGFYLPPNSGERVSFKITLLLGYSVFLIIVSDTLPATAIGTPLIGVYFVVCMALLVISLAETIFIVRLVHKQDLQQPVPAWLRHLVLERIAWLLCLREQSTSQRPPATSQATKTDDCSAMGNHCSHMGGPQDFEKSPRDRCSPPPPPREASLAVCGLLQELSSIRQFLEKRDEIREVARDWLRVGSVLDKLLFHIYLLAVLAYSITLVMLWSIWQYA
Description: Displacement of [3H]GR65630 from 5-HT3 receptor (unknown origin)

[26] = target: 5-hydroxytryptamine receptor 5A (Homo sapiens, UniProt P47898)
Description: Displacement of [3H]LSD from 5-HT5A receptor (unknown origin)

[27] = target: 5-hydroxytryptamine receptor 2C (Homo sapiens, UniProt P28335)
Description: Displacement of [3H]Mesulergine from 5-HT2C receptor (unknown origin)

[28] = target: 5-hydroxytryptamine receptor 2B (Homo sapiens, UniProt P41595)
Description: Displacement of [3H]LSD from 5-HT2B receptor (unknown origin)

[29] = target: 5-hydroxytryptamine receptor 1E (Homo sapiens, UniProt P28566)
Description: Displacement of [3H]5HT from 5-HT1E receptor (unknown origin)

[30] = target: 5-hydroxytryptamine receptor 1B (Homo sapiens, UniProt P28222)
Description: Displacement of [3H]5-CT from 5-HT1B receptor (unknown origin)

[31] = target: Muscarinic acetylcholine receptor M5 (Homo sapiens, UniProt P08912)
Description: Displacement of [3H]QNB from muscarinic M5 receptor (unknown origin)

Chain of Beta-3 adrenergic receptor (P13945 whole entry): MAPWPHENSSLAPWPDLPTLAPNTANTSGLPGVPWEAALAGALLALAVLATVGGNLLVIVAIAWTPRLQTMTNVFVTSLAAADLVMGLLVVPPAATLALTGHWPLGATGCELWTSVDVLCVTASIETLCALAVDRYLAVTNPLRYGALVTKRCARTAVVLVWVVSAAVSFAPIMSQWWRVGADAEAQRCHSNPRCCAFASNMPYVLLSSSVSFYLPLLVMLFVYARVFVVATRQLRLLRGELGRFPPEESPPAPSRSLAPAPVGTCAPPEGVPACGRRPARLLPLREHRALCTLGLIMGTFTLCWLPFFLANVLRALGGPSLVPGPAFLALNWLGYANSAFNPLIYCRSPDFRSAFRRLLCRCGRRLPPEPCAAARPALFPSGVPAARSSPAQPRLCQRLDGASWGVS
Chain of Beta-2 adrenergic receptor (P07550 whole entry): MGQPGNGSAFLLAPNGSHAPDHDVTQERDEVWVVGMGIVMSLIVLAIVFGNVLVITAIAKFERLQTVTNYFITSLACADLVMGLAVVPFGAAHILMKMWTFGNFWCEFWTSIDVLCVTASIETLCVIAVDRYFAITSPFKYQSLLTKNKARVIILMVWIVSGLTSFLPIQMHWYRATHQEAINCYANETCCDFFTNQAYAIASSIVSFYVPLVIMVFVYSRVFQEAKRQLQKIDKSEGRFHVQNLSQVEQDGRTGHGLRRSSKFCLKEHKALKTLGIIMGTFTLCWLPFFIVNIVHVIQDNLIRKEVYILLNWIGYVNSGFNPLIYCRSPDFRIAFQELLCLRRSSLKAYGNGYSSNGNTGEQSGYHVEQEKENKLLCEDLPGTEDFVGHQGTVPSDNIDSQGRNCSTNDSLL
Chain of Beta-1 adrenergic receptor (P08588 whole entry): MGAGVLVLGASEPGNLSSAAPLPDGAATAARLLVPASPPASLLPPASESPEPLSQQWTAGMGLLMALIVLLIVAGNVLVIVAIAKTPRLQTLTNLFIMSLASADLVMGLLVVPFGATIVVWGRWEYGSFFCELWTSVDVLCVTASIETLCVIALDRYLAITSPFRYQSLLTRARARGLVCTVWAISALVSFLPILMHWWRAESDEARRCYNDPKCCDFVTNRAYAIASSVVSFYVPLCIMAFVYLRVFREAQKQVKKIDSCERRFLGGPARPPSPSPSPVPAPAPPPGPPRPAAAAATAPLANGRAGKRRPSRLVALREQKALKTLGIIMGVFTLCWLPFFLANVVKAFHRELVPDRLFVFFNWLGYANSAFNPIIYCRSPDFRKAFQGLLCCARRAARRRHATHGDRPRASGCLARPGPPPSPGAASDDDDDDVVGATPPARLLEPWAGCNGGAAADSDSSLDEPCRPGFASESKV
Chain of Sodium-dependent noradrenaline transporter (P23975 whole entry): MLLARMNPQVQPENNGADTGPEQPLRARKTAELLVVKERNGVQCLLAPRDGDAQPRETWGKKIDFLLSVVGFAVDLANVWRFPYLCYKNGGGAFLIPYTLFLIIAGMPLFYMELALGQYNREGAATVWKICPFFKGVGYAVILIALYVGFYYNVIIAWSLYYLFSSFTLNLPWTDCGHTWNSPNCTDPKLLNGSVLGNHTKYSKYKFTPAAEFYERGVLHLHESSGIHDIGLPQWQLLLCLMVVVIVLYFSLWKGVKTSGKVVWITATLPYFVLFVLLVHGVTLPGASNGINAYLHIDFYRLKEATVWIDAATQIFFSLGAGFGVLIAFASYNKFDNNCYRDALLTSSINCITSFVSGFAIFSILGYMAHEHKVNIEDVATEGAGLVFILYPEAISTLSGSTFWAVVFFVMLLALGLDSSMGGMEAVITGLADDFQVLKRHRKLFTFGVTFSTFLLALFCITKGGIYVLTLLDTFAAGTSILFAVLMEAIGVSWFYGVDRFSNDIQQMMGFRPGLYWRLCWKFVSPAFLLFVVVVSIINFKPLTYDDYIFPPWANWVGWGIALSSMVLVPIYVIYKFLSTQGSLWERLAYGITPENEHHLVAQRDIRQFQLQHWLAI
Chain of Sodium-dependent dopamine transporter (Q01959 whole entry): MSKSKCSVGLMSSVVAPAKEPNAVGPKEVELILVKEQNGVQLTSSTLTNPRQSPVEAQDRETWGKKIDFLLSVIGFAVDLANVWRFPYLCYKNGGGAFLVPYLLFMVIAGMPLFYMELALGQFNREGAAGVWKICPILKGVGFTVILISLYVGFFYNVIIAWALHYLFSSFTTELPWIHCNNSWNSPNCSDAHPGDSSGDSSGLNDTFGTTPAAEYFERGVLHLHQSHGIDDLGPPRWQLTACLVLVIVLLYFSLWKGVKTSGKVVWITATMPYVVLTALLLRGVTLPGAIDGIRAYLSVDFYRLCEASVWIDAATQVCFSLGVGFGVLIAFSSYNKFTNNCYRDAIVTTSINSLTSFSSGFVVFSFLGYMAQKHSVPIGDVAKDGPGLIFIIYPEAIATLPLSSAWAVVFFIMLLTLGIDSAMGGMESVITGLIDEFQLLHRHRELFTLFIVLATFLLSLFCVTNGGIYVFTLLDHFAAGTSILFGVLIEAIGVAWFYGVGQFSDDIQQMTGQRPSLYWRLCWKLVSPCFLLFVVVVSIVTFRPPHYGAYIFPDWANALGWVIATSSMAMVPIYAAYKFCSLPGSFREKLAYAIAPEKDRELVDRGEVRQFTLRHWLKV
Chain of Histamine H2 receptor (P25021 whole entry): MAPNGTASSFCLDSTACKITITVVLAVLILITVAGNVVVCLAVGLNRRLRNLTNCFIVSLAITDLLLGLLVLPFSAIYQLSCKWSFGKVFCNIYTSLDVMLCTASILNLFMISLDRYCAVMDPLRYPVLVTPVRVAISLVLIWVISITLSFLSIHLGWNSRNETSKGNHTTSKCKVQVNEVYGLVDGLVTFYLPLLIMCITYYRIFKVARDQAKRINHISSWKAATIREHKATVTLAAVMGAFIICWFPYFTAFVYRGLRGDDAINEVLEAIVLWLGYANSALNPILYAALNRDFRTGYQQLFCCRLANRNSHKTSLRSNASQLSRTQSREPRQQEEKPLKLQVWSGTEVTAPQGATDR
Chain of Mu-type opioid receptor (P35372 whole entry): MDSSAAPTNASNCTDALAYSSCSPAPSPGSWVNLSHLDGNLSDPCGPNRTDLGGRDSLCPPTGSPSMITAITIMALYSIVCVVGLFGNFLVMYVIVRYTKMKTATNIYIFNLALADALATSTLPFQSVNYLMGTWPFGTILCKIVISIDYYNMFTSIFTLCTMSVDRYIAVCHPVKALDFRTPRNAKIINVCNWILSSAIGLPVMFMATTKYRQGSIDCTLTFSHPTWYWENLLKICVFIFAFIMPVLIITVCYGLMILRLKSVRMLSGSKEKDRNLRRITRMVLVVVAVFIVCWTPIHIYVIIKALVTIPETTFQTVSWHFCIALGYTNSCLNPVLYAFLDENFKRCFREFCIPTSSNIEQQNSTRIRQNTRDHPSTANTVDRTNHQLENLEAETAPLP
Chain of D(1A) dopamine receptor (P21728 whole entry): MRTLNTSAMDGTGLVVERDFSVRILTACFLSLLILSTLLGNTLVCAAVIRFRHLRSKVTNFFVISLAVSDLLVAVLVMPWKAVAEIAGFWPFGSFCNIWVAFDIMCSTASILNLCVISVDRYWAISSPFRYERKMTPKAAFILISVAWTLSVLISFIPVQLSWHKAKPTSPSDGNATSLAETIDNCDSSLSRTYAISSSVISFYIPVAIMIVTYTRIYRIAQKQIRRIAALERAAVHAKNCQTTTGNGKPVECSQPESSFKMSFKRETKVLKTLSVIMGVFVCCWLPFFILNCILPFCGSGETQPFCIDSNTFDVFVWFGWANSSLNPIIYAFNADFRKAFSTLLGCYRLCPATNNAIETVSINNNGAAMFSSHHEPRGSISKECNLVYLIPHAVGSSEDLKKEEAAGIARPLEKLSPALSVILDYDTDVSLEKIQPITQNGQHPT
Chain of Histamine H3 receptor (Q9Y5N1 whole entry): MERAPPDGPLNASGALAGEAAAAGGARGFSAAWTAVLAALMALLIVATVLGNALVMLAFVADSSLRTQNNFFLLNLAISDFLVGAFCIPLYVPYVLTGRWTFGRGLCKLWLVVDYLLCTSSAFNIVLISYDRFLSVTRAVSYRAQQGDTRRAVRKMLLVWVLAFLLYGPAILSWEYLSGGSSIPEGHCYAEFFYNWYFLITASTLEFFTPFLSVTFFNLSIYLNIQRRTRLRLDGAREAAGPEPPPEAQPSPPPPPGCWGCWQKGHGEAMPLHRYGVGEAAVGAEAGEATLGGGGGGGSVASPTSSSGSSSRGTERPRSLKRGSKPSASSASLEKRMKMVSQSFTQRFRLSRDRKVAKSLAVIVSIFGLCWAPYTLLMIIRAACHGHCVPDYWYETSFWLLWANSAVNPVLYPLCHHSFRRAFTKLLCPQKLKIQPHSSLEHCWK
Chain of Delta-type opioid receptor (P41143 whole entry): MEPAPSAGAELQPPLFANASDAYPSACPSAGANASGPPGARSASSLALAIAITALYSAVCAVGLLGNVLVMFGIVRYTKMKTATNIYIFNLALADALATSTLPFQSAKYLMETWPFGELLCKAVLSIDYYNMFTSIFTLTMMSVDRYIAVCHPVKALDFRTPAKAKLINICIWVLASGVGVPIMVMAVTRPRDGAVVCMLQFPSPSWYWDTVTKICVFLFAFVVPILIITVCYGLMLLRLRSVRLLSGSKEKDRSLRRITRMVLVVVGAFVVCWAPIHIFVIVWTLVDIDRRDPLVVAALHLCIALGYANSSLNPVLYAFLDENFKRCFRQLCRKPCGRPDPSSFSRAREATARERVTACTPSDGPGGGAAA
Chain of Sigma non-opioid intracellular receptor 1 (Q99720 whole entry): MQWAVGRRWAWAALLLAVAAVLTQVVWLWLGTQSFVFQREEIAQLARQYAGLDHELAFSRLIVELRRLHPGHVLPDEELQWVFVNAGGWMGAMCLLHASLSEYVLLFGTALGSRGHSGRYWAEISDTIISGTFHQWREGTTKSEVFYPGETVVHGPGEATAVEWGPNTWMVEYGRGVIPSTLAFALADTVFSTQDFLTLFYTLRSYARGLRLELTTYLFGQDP

Row | Ki [1] [µM] | Ki [2] [µM] | Ki [3] [µM] | Ki (Mu-type opioid receptor) [µM] | Ki [4] [µM] | Ki [5] [µM] | Ki (Histamine H3 receptor) [µM] | Ki [7] [µM] | Ki [8] [µM] | Ki [9] [µM] | Ki (D(2) dopamine receptor) [µM] | Ki (D(1A) dopamine receptor) [µM] | Ki ([17]; read-out: Ki) [nM] | Ki [18] [µM] | Ki [19] [µM] | Ki (Histamine H2 receptor) [nM] | Ki [22] [nM] | Ki (D(1B) dopamine receptor) [µM] | Ki (D(4) dopamine receptor) | Ki [25] [µM] | SMILES | other results
1 | > 10 | > 10 | > 10 | > 10 | > 10 | > 10 | > 10 | > 10 | > 10 | > 10 | > 10 | > 10 | 1350 | > 10 | > 10 | > 10000 | > 10000 | > 10 | > 10000 nM | > 10 | CN1CCc2c(c3cccc4c3n2Cc2ccccc2C4)C1 | Ki ([6]; read-out: pKi (converted)): > 10000 nM; Ki ([11]; read-out: pKi (converted)): > 10000 nM; Ki ([12]; read-out: pKi (converted)): > 10000 nM; Ki ([16]; read-out: pKi (converted)): > 10000 nM; Ki [26]: > 10 µM; Ki [27]: > 10 µM; Ki [29]: > 10 µM; Ki [31]: > 10 µM
2 | > 10 |  |  | > 10 | > 10 |  | > 10 | > 10 | > 10 | > 10 |  | > 10 |  | > 10 | > 10 |  |  |  | > 10000 nM | > 10 | CN1CCc2c(c3cccc4c3n2-c2ccccc2CC4)C1 | Ki ([17]; read-out: pKi (converted)): > 10000 nM; Ki (D(3) dopamine receptor): > 10 µM

Second part, the compound before the results:

Row | SMILES | Ki [1] [µM] | Ki [2] [µM] | Ki [3] [µM] | Ki (Mu-type opioid receptor) [µM] | Ki [4] [µM] | Ki [5] [µM] | Ki (Histamine H3 receptor) [µM] | Ki [7] [µM] | Ki [8] [µM] | Ki [9] [µM] | Ki (D(2) dopamine receptor) [µM] | Ki (D(1A) dopamine receptor) [µM] | Ki ([17]; read-out: Ki) [nM] | Ki [18] [µM] | Ki [19] [µM] | Ki (Histamine H2 receptor) [nM] | Ki [22] [nM] | Ki (D(1B) dopamine receptor) [µM] | Ki (D(4) dopamine receptor) | Ki [25] [µM] | other results
3 | CN1CCc2c(c3cccc4c3n2CCc2ccccc2-4)C1 | > 10 | > 10 | > 10 | > 10 | > 10 | > 10 | > 10 | > 10 | > 10 | > 10 | > 10 | > 10 | 1950 | > 10 | > 10 | 943 | 2240 | > 10 | 1380 nM and 1230 nM | 0.529 | Ki ([6]; read-out: Ki): 220 nM; Ki (Histamine H1 receptor): > 10 µM; Ki [10]: 4.35 µM; Ki ([11]; read-out: Ki): 293 nM; Ki ([12]; read-out: Ki): 286 nM; Ki [13]: 257 nM; Ki [14]: 625 nM; Ki [15]: > 10 µM; Ki ([16]; read-out: Ki): 413 nM; Ki [20]: 446 nM; Ki [21]: 407 nM; Ki (D(3) dopamine receptor): > 10 µM; Ki [23]: > 10 µM; Ki [24]: 195 nM; Ki [26]: > 10 µM; Ki [27]: > 10 µM; Ki [28]: 104 nM; Ki [29]: > 10 µM; Ki [30]: 1220 nM; Ki [31]: > 10 µM
4 | Cn1ccc2cc3c(cc21)CCN3C(=O)Nc1cccnc1 |  |  |  |  |  |  |  |  |  |  |  |  |  |  |  |  |  |  |  |  | Ki [28]: 12 nM
5 | CN1CC2c3ccccc3Oc3ccc(Cl)cc3C2C1 (centres undefined) [ASENAPINE MALEATE] |  |  |  |  |  |  |  |  |  |  |  |  |  |  |  | 5.7 |  |  |  |  | 
